# Source: US6572877B2, “Worm food composition” (Legend Laboratories Corporation, priority 2001, dated 2003)
# System: Lumbricus terrestris
# Assay: Feeding experiment with Lumbricus terrestris (Canadian night crawler), cartons of one dozen worms plus bedding
# Type: in vivo
# Settings: Carton 1
# Description: The first experiment was conducted with Lumbricus terrestris. Lumbricus terrestris typically measures from 90-300 mm by 6-10 mm having a dark anterior and a pale flattened posterior. These worms live in an anecic habit meaning that they build permanent, vertical burrows that extend typically 2.5 m into the soil. Such worms feed in decaying organic material and grow and breed very slowly compared to other worms. This worm must have the burrow to return to and simply won't perform well in a worm bin. In their natural habitat such worms can live up to six years.
# In the experiment, five cartons containing one dozen worms plus bedding each were kept in the refrigerator at 36° F. to 40° F. prior to the beginning the experiment. After refrigeration the following compounds were added to the specified cartons. Carton 1 was treated with a stock solution of 5 ml xanthene acid yellow 73 from a stock solution of 0.5 g xanthene acid yellow 73 in 500 ml distilled water. Carton 2 was treated with 5 grams of a stock mixture having 40 grams corn meal and 1 gram xanthene acid yellow 73. This mixture was simply added to Carton 2 and was not agitated. Carton 3 was treated with 5 grams of the same stock mixture and shaken gently to evenly disperse the mixture in Container 3. Carton 4 was treated with 5 grams from a mixture of 40 grams corn meal and 2 grams xanthene acid yellow 73 and was not agitated. […]
smiles,measurement,setting,value
O=C([O-])c1ccccc1-c1c2ccc(=O)cc-2oc2cc([O-])ccc12.[Na+].[Na+] [xanthene acid yellow 73],color of the worm,"5 ml of stock solution 0.5 g in 500 ml distilled water, after 7 days",no change in the color of the worm
same,condition of the worms,"5 ml of stock solution, after six weeks",weak and dying from lack of nutrition
